Data taken from US20060116390A1, “Hepatitis c virus inhibitors” (priority 2003, published 2006).
Where two headings read alike, the source gives them in different places.

Test system: HCV proteins in Rep5.1 cells (replicon cell line)
Assay: Inhibitory activity of HCV: cell-based ELISA in replicon cell line Rep5.1 (decrease of HCV proteins)
Parameters: species or system hepatitis C virus
Settings: Hepatitis C virus, 72 h, Rep5.1 cells, 72 hours with drug
Description: In order to, screen and evaluate the anti-HCV therapeutic agents in cell level, the following experiments are carried out using a replicon cell line, Rep5.1 [Lohmann, et al., Replication of subgenomic hepatitis C virus RNAs in a hepatoma cell line. Science 285:110-113 (1999)].
Rep5.1 cells, the replicon cell line, are cultured in DMEM-10 containing 500 μg/ml of G418. The Rep5.1 cells in log phase are suspended by trypsin treatment, and 5000 cells are distributed to each well of a 96-well plate. After 4 hours when the cells are attached to the plate, the serially diluted drug is added to each well. After 48 hours, a part of the treated cells are observed by microscope, and MTT assay is carried out to evaluate the drug toxicity. The cytotoxicity is estimated in percentage based on the control containing no drug. After 72 hours, the remaining cells are fixed by methanol/acetone (50/50, v/v), and the decrease of HCV proteins is measured by using HCV antibody. The extent of decrease is estimated in percentage based on the control containing no drug, and the concentration of drug at which 50% of proteins is decreased is determined to be IC50. The compounds showing activity via this procedure are validated by Western blotting. In order to find out whether the decrease of HCV protein is related to the decrease of replicon RNA, Rep5.1 cell is treated with some selected drugs for 72 hours, RNA is purified, dot blotted, and hybridized with isotope labelled nucleic acid to determine the amounts of actin mRNA and replicon RNA, and finally the amount of RNA is compared.
Plasma samples from 300 persons positive to the hepatitis C antibody test were screened by antibody diagnosis kit produced by LG life Sciences Ltd. (LG HCD3.0 TMB) to select 40 plasma samples having high titer. Replicon cell line and Huh-7 cell line each were cultured in a 96-well cell culture plate, fixed by methanol/acetone (1:1) mixture, and blocked by 3% skimmed milk. The 40 plasma sanples selected above were 100-fold diluted and aided thereto, and the bound antibodies were probed by anti-Human goat antibody (Sigma) to which Horse Radish Peroxidase is attached. As a result, 12 plasma samples having low specificity to Huh-7 cell line, but high specificity to replicon cell line were obtained. These plasma samples were used in the following cell-based ELISA.
Rep5.1 cells were cultured in DMEM-10 containing 500 μg/ml of G418. The Rep5.1 cells in log phase were suspended by trypsin treatment, and 5000 cells were distributed to each well of a 96-well pate. After 4 hours for which the cells were attached to the plate, the serially diluted drug was added to each well. After 72 hours, the cells were fixed by methanol/acetone (50/50, v/v), and the decrease of HCV proteins was measured by using HCV antibody obtained as above. The extent of decrease was estimated in percentage based on the control containing no drug, and the concentration of drug at which 50% of proteins was decreased was determined to be IC50.

[1] = concentration at which 50% of HCV proteins was decreased, Table 2, read-out: IC50
[2] = decrease of HCV proteins measured by HCV antibody, Table 1, read-out: Level (IC50 values classified)

Work on `CCOC(=O)OCC1NC(=S)NC(C)=C1C(=O)OCCc1cccc(Cl)c1` (stereo not shown) [49″, 4-ethoxycarbonyloxymethyl-6-methyl-2-thioxo-1,2,3,4-tetrahydro-pyrimidine-5-carboxylic acid 2-(3-chloro-phenyl)-ethyl ester] yielded an IC50 [1] of 3000 nM and an IC50 [2] of 1000 to 10000 nM.
Compound `CC1=C(C(=O)OCc2cccc(C#N)c2)CNC(=S)N1` [Compound 48, 6-methyl-2-thioxo-1,2,3,4-tetrahydro-pyrimidine-5-carboxylic acid 3-cyano-benzyl ester] has an IC50 [1] of 30000 nM and an IC50 [2] of 10000 to 20000 nM.
`COc1cccc(COC(=O)C2=C(C)NC(=S)NC2)c1` [Compound 120, 6-methyl-2-thioxo-1,2,3,4-tetrahydro-pyrimidine-5-carboxylic acid 3-methoxy-benzyl ester] gave an IC50 [1] of 1000 nM and an IC50 [2] of 1000 to 10000 nM.
`CC1=C(C(=O)OCCc2ccccc2[N+](=O)[O-])C(CF)NC(=S)N1` (stereo not shown) [77′, 4-fluoromethyl-6-methyl-2-thioxo-1,2,3,4-tetrahydro-pyrimidine-5-carboxylic acid 2-(2-nitro-phenyl)-ethyl ester] gave an IC50 [1] of 39000 nM and an IC50 [2] greater than 20000 nM.
Work on `O=C(OCCc1ccsc1)C1=CNC(=S)NC1CF` (stereo not shown) [Compound 271, 4-fluoromethyl-2-thioxo-1,2,3,4-tetrahydro-pyrimidine-5-carboxylic acid 2-thiophen-3-yl-ethyl ester] yielded an IC50 [1] of 9000 nM and an IC50 [2] of 1000 to 10000 nM.
With `CC1=C(C(=O)OCCc2cc(Cl)ccc2[N+](=O)[O-])C(CO)NC(=S)N1` (stereo not shown) [54″, 4-hydroxymethyl-6-methyl-2-thioxo-1,2,3,4-tetrahydro-pyrimidine-5-carboxylic acid 2-(5-chloro-2-nitro-phenyl)-ethyl ester] the IC50 [1] was 8000 nM and the IC50 [2] was 1000 to 10000 nM.
`CC1=C(C(=O)OC2CCCC2)CNC(=S)N1` [Compound 67, 6-methyl-2-thioxo-1,2,3,4-tetrahydro-pyrimidine-5-carboxylic acid cyclopentyl ester] gave an IC50 [1] of 6000 nM and an IC50 [2] of 1000 to 10000 nM.
For `CC1=C(C(=O)OCCc2cccc(Cl)c2)C(CO)NC(=S)N1` (stereo not shown) [31″, 4-hydroxymethyl-6-methyl-2-thioxo-1,2,3,4-tetrahydro-pyrimidine-5-carboxylic acid 2-(3-chloro-phenyl)-ethyl ester], the IC50 [1] was 1000 nM and the IC50 [2] was less than 1000 nM.
`CC1=C(C(=O)OCCCc2ccc(F)cc2)C(CF)NC(=S)N1` (stereo not shown) [56′, 4-fluoromethyl-6-methyl-2-thioxo-1,2,3,4-tetrahydro-pyrimidine-5-carboxylic acid 3-(4-fluorophenyl)-propyl ester] gave an IC50 [1] of 2400 nM and an IC50 [2] of 1000 to 10000 nM.
Compound `CC1=C(C(=O)OCc2ccco2)CNC(=S)N1` [Compound 12, 6-methyl-2-thioxo-1,2,3,4-tetrahydro-pyrimidine-5-carboxylic acid furan-2-ylmethyl ester] has an IC50 [1] of 22000 nM and an IC50 [2] of 10000 to 20000 nM.
`CC1=C(C(=O)OCc2ccncc2)CNC(=S)N1` [Compound 155, 6-methyl-2-thioxo-1,2,3,4-tetrahydro-pyrimidine-5-carboxylic acid pyridin-4-ylmethyl ester] showed an IC50 [1] greater than 100000 nM and an IC50 [2] greater than 20000 nM.
For `CC1=C(C(=O)OCc2ccc(F)cc2)CNC(=S)N1` [Compound 61, 6-methyl-2-thioxo-1,2,3,4-tetrahydro-pyrimidine-5-carboxylic acid 4-fluoro-benzyl ester], the IC50 [1] was 800 nM and the IC50 [2] was less than 1000 nM.
Compound `CC1=C(C(=O)OCc2cc3ccccc3s2)CNC(=S)N1` [Compound 219, 6-methyl-2-thioxo-1,2,3,4-tetrahydro-pyrimidine-5-carboxylic acid benzo[b]thiophen-2-ylmethyl ester] has an IC50 [1] of less than 400 nM and an IC50 [2] of less than 1000 nM.
`CC1=C(C(=O)SCc2ccccc2)CNC(=S)N1` [Compound 85, 6-methyl-2-thioxo-1,2,3,4-tetrahydro-pyrimidine-5-carbothioic acid S-benzyl ester] showed an IC50 [1] of 100 nM and an IC50 [2] of less than 1000 nM.
`CC1=C(C(=O)OCc2ccc(C(F)(F)F)cc2)CNC(=S)N1` [Compound 114, 6-methyl-2-thioxo-1,2,3,4-tetrahydro-pyrimidine-5-carboxylic acid 4-trifluoromethyl-benzyl ester] gave an IC50 [1] of less than 400 nM and an IC50 [2] of less than 1000 nM.
`CC1=C(C(=O)OCc2ccccc2)C(C(F)(F)F)NC(=S)N1` (stereo not shown) [Compound 234, 6-methyl-2-thioxo-4-trifluoromethyl-1,2,3,4-tetrahydro-pyrimidine-5-carboxylic acid benzyl ester] was tested, and the IC50 [1] was 100000 nM and the IC50 [2] was greater than 20000 nM.
For `COc1ccc(COC(=O)C2=C(C)NC(=S)NC2)c(C)c1C` [Compound 138, 6-methyl-2-thioxo-1,2,3,4-tetrahydro-pyrimidine-5-carboxylic acid 4-methoxy-2,3-dimethyl-benzyl ester], the IC50 [1] was 20000 nM and the IC50 [2] was 10000 to 20000 nM.
For `CC1=C(C(=O)OCC2COc3ccccc3O2)CNC(=S)N1` (stereo not shown) [Compound 195, 6-methyl-2-thioxo-1,2,3,4-tetrahydro-pyrimidine-5-carboxylic acid 2,3-dihydro-benzo[1,4]dioxin-2-ylmethyl ester], the IC50 [1] was 2000 nM and the IC50 [2] was 1000 to 10000 nM.
Work on `CC1=C(C(=O)OCCc2ccsc2)C(COCc2ccccc2)NC(=S)N1` (stereo not shown) [Compound 272, 4-benzyloxymethyl-6-methyl-2-thioxo-1,2,3,4-tetrahydro-pyrimidine-5-carboxylic acid 2-thiophen-3-yl-ethyl ester] yielded an IC50 [1] of 34000 nM and an IC50 [2] greater than 20000 nM.
Work on `CC1=C(C(=O)OCC2CCCC2)CNC(=S)N1` [Compound 68, 6-methyl-2-thioxo-1,2,3,4-tetrahydro-pyrimidine-5-carboxylic acid cyclopentylmethyl ester] yielded an IC50 [1] of 700 nM and an IC50 [2] of less than 1000 nM.
With `COc1ccc(Cl)cc1COC(=O)C1=C(C)NC(=S)NC1CF` (stereo not shown) [36′, 4-fluoromethyl-6-methyl-2-thioxo-1,2,3,4-tetrahydro-pyrimidine-5-carboxylic acid 5-chloro-2-methoxy-benzyl ester] the IC50 [1] was 1700 nM and the IC50 [2] was 1000 to 10000 nM.
`COc1ccc(CCOC(=O)C2=C(C)NC(=S)NC2CO)cc1C` (stereo not shown) [69″, 4-hydroxymethyl-6-methyl-2-thioxo-1,2,3,4-tetrahydro-pyrimidine-5-carboxylic acid 2-(4-methoxy-3-methyl-phenyl)-ethyl ester] showed an IC50 [1] of 800 nM and an IC50 [2] of less than 1000 nM.
With `CC1=C(C(=O)OCCc2cn(C)c3ccccc23)CNC(=S)N1` [Compound 165, 6-methyl-2-thioxo-1,2,3,4-tetrahydro-pyrimidine-5-carboxylic acid 2-(1-methyl-1H-indol-3-yl)-ethyl ester] the IC50 [1] was 1400 nM and the IC50 [2] was 1000 to 10000 nM.
`CC1=C(C(=O)OCCOCc2ccccc2)CNC(=S)N1` [Compound 15, 6-methyl-2-thioxo-1,2,3,4-tetrahydro-pyrimidine-5-carboxylic acid 2-benzyloxy-ethyl ester] showed an IC50 [1] of 3000 nM and an IC50 [2] of 1000 to 10000 nM.
In the case of `CC1=C(C(=O)OCCc2ccc(C)s2)CNC(=S)N1` [Compound 258, 6-methyl-2-thioxo-1,2,3,4-tetrahydro-pyrimidine-5-carboxylic acid 2-(5-methyl-thiophen-2-yl)-ethyl ester], the IC50 [1] is reported as less than 400 nM and the IC50 [2] is reported as less than 1000 nM.
For `CC1=C(C(=O)OCCc2ccc(N3CC=CC3)c([N+](=O)[O-])c2)C(CO)NC(=S)N1` (stereo not shown) [101″, 4-Hydroxymethyl-6-methyl-2-thioxo-1,2,3,4-tetrahydro-pyrimidine-5-carboxylic acid 2-[4-(2,5-dihydro-pyrrol-1-yl)-3-nitro-phenyl]-ethyl ester], the IC50 [1] was 1200 nM and the IC50 [2] was 1000 to 10000 nM.
Work on `CC1=C(C(=O)OCC2CC=CCC2)CNC(=S)N1` (stereo not shown) [3′, 6-methyl-2-thioxo-1,2,3,4-tetrahydro-pyrimidine-5-carboxylic acid cyclohex-3-enylmethyl ester] yielded an IC50 [1] of 700 nM and an IC50 [2] of less than 1000 nM.
`CCc1ccc(CCOC(=O)C2=C(C)NC(=S)NC2CO)o1` (stereo not shown) [65″, 4-hydroxymethyl-6-methyl-2-thioxo-1,2,3,4-tetrahydro-pyrimidine-5-carboxylic acid 2-(5-ethyl-furan-2-yl)-ethyl ester] gave an IC50 [1] of 1400 nM and an IC50 [2] of 1000 to 10000 nM.
`CC1=C(C(=O)OC2CCN(Cc3ccccc3)CC2)CNC(=S)N1` [Compound 86, 6-methyl-2-thioxo-1,2,3,4-tetrahydro-pyrimidine-5-carboxylic acid 1-benzyl-piperidin-4-yl ester] showed an IC50 [1] greater than 100000 nM and an IC50 [2] greater than 20000 nM.
